Assays:
Assay in all cases: relative viability (nuclei count vs DMSO), 5 days (fraction); higher = more cells survive
Kobe2602 + Olaparib = compound: C1=CC(=CC=C1NC(=S)NNC2=C(C=C(C=C2[N+](=O)[O-])C(F)(F)F)[N+](=O)[O-])F [Kobe2602] + O=C(c1cc(Cc2n[nH]c(=O)c3ccccc23)ccc1F)N1CCN(C(=O)C2CC2)CC1 [Olaparib] (partner 8 µM)
Summary of the method: (§1)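 Each reported value is a median over duplicate plates. It expresses relative viability: treated-well nuclei count divided by vehicle-well nuclei count. Lung cancer cell lines in 1536-well plates were dosed by pin tool a day after seeding, alone with one drug or with a fixed anchor-drug dose plus five library-drug doses (not always all listed) in √10 steps, and nuclei were counted after 5 days.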

[1] = compound: COc1cc2nccc(Oc3ccc(NC(=O)C4(C(=O)Nc5ccc(F)cc5)CC4)cc3)c2cc1OC [Cabozantinib] + CS(=O)(=O)N1CCN(Cc2cc3nc(-c4cccc5[nH]ncc45)nc(N4CCOCC4)c3s2)CC1 [Pictilisib] (partner 1 µM)
Summary of the method: as §1

Cabozantinib + Dasatinib = compound: COc1cc2nccc(Oc3ccc(NC(=O)C4(C(=O)Nc5ccc(F)cc5)CC4)cc3)c2cc1OC [Cabozantinib] + Cc1nc(Nc2ncc(C(=O)Nc3c(C)cccc3Cl)s2)cc(N2CCN(CCO)CC2)n1 [Dasatinib] (partner 0.075 µM)
Summary of the method: as §1

Cabozantinib + AZD7762 = compound: COc1cc2nccc(Oc3ccc(NC(=O)C4(C(=O)Nc5ccc(F)cc5)CC4)cc3)c2cc1OC [Cabozantinib] + NC(=O)Nc1cc(-c2cccc(F)c2)sc1C(=O)N[C@H]1CCCNC1 [AZD7762] (partner 0.2 µM)
Summary of the method: as §1

Cell Line | relative viability (Kobe2602 + Olaparib; first compound 0.2 µM) | relative viability (Kobe2602 + Olaparib; first compound 0.6325 µM) | relative viability (Kobe2602 + Olaparib; first compound 6.325 µM) | relative viability (Kobe2602 + Olaparib; first compound 20 µM) | relative viability ([1]; first compound 0.06325 µM) | relative viability ([1]; first compound 0.2 µM) | relative viability ([1]; first compound 0.6325 µM) | relative viability ([1]; first compound 2 µM) | relative viability (Cabozantinib + Dasatinib; first compound 0.02 µM) | relative viability (Cabozantinib + Dasatinib; first compound 0.06325 µM) | relative viability (Cabozantinib + Dasatinib; first compound 0.2 µM) | relative viability (Cabozantinib + Dasatinib; first compound 0.6325 µM) | relative viability (Cabozantinib + Dasatinib; first compound 2 µM) | relative viability (Cabozantinib + AZD7762; first compound 0.06325 µM) | relative viability (Cabozantinib + AZD7762; first compound 0.2 µM) | relative viability (Cabozantinib + AZD7762; first compound 0.6325 µM) | relative viability (Cabozantinib + AZD7762; first compound 2 µM) | relative viability (Kobe2602 + Olaparib; first compound 2 µM) | relative viability ([1]; first compound 0.02 µM) | relative viability (Cabozantinib + AZD7762; first compound 0.02 µM)
LCLC-97TM1 | 0.365 | 0.416 | 0.437 | 0.383 | 0.2 | 0.152 | 0.296 | 0.32 | 0.723 | 0.854 | 0.757 | 0.848 | 0.717 | 0.305 | 0.285 | 0.195 | 0.304 | – | – | –
LCLC-103H | 0.775 | 0.793 | 0.762 | 0.764 | 0.622 | 0.58 | 0.606 | 0.528 | 0.34 | 0.552 | 0.398 | 0.486 | 0.378 | 0.87 | 0.811 | 0.813 | 0.721 | 0.804 | 0.524 | 0.762
LK-2 | 0.619 | 0.766 | 0.596 | 0.796 | 0.632 | 0.565 | 0.625 | 0.588 | – | 0.247 | – | 0.341 | 0.46 | 0.659 | 0.426 | 0.434 | 0.408 | 0.875 | – | –
LOU-NH91 | 0.9 | 0.922 | 0.917 | 0.819 | 0.541 | 0.476 | 0.485 | 0.513 | 0.432 | 0.579 | – | 0.578 | 0.547 | 0.862 | 0.703 | 0.752 | 0.768 | 0.875 | 0.494 | 0.637
LU99A | 0.255 | 0.275 | 0.262 | 0.28 | 0.335 | 0.299 | 0.33 | 0.346 | 0.461 | 0.715 | 0.412 | 0.448 | 0.523 | 0.376 | 0.411 | 0.279 | 0.397 | 0.259 | 0.248 | 0.292
LXF-289 | 1.05 | 1.1 | 0.955 | 1.04 | 0.727 | 0.783 | 0.69 | 0.693 | 0.126 | 0.206 | 0.155 | 0.117 | 0.0913 | 1.07 | 1.13 | 1.09 | 1.06 | 1.05 | 0.74 | 1.15
NCI-H23 | 0.367 | 0.355 | 0.277 | 0.313 | 0.476 | 0.402 | 0.358 | 0.427 | – | 1.17 | 0.808 | 0.936 | 0.598 | 0.312 | 0.248 | 0.261 | 0.241 | 0.249 | – | –
NCI-H322M | 0.737 | 0.752 | 0.875 | 0.828 | 0.548 | – | 0.572 | 0.526 | 0.259 | 0.271 | 0.238 | 0.264 | 0.26 | 0.716 | 0.543 | 0.725 | 0.612 | 0.776 | 0.443 | 0.574
NCI-H358 | 0.586 | 0.592 | 0.528 | 0.653 | 0.35 | 0.386 | 0.387 | 0.373 | 0.15 | 0.194 | 0.12 | 0.197 | 0.19 | 0.715 | 0.499 | 0.544 | 0.62 | 0.589 | 0.318 | 0.457
NCI-H441 | 0.581 | 0.716 | 0.511 | 0.545 | 0.512 | 0.49 | 0.581 | 0.404 | 0.431 | 0.704 | 0.458 | 0.582 | 0.51 | 1.43 | 1.1 | 1.44 | 0.826 | 0.66 | 0.459 | 1.64
NCI-H460 | 0.427 | 0.416 | 0.423 | 0.43 | 0.44 | 0.379 | 0.23 | 0.439 | 0.321 | 0.607 | 0.496 | 0.493 | 0.565 | 0.801 | 0.68 | 0.623 | 0.63 | 0.455 | 0.232 | 0.633
NCI-H596 | 0.758 | 0.661 | 0.718 | 0.799 | 0.408 | 0.388 | 0.27 | 0.374 | 0.509 | 0.637 | 0.558 | 0.582 | 0.544 | 1.35 | 1.15 | 1.07 | 1.09 | 0.718 | 0.389 | 1.12
NCI-H647 | 0.511 | 0.39 | 0.606 | 0.618 | 0.571 | 0.481 | 0.362 | 0.398 | 0.281 | 0.17 | 0.201 | 0.147 | 0.136 | 0.77 | 0.427 | 0.594 | 0.4 | 0.55 | 0.434 | 0.44
NCI-H650 | 0.4 | 0.443 | 0.403 | 0.401 | 1.02 | 1.02 | 0.774 | 0.868 | – | 0.504 | 0.452 | 0.49 | 0.445 | 1.24 | 0.938 | 1.04 | 0.982 | 0.37 | 0.765 | 0.959
NCI-H727 | 0.748 | 0.678 | – | 0.736 | 0.493 | 0.302 | 0.357 | 0.36 | 0.298 | 0.455 | 0.284 | 0.348 | 0.298 | 0.796 | 0.661 | 0.539 | 0.651 | 0.847 | 0.228 | 0.509
NCI-H838 | 0.733 | 0.779 | 0.725 | 0.764 | 0.574 | 0.529 | 0.394 | 0.417 | 0.251 | 0.309 | 0.312 | 0.338 | 0.281 | 0.74 | 0.908 | 0.93 | 0.866 | 0.759 | 0.499 | 1
